Experimental data taken from US11066414B2, “Cot modulators and methods of use thereof” (Gilead Sciences, Inc., priority 2015, dated 2021).
Like-named read-outs stand apart in the source and are kept apart here.

What was measured:
TNFα = assay: Cot Monocyte TNFα Cell Based Assay
Human Cot = Human Cot (Homo sapiens (Human), UniProt P41279); assay: High Throughput Cot Biochemical Assay
[1] = Homo sapiens, Monocyte, read-out: EC50 TNF, LPS-stimulated human monocytes, TNFα
[2] = IC50 HTRF, Cot HTRF (TR-FRET) biochemical assay
[3] = Homo sapiens, Monocyte, read-out: EC50 TNF, LPS-stimulated human monocytes, TNFα TR-FRET
[4] = IC50 HTRF, Cot HTRF (TR-FRET KinEASE) biochemical assay, 400 μM ATP
[5] = read-out: EC50 TNF, LPS-stimulated human monocytes, TNFα
[6] = read-out: IC50 HTRF, Cot HTRF (TR-FRET) biochemical assay

Sequence of Human Cot (P41279 30-397): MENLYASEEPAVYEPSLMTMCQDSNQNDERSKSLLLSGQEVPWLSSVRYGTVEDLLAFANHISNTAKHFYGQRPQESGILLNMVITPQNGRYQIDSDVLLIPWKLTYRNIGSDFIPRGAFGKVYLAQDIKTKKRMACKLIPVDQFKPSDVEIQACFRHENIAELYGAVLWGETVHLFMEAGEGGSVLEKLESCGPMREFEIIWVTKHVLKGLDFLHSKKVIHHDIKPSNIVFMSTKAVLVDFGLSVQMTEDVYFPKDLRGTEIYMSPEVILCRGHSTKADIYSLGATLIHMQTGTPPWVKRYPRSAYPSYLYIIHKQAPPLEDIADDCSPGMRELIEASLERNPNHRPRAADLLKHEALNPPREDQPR

| SMILES | EC50 (TNFα; [1]) [nM] | IC50 (Human Cot; [2]) [nM] | further results |
| --- | --- | --- | --- |
| CC(C)n1cc([C@@H](Nc2cc(Cl)c3ncc(C#N)c(Nc4ccc(F)c(Cl)c4)c3c2)c2cscn2)nn1 [Example 357, (S)-8-chloro-4-((3-chloro-4-fluorophenyl)amino)-6-(((1-isopropyl-1H-1,2,3-triazol-4-yl)(thiazol-4-yl)methyl)amino)quinoline-3-carbonitrile] | 235 | 5 |  |
| Cc1nc(F)ccc1[C@H](Nc1cc(C#N)c2ncc(C#N)c(NCC(C)(C)C(F)(F)F)c2c1)c1nnn(C23CC(C2)C3)c1F [Example 861, (S)-6-(((1-(bicyclo[1.1.1]pentan-1-yl)-5-fluoro-1H-1,2,3-triazol-4-yl)(6-fluoro-2-methylpyridin-3-yl)methyl)amino)-4-((3,3,3-trifluoro-2,2-dimethylpropyl)amino)quinoline-3,8-dicarbonitrile] |  |  | EC50 (TNFα; [3]): 40 nM; IC50 (Human Cot; [4]): 7 nM |
| CC[C@@H](Nc1c(C#N)cnc2c(Cl)cc(N[C@@H](c3cccnc3)c3cn(C(C)C)nn3)cc12)c1ccccc1 [Example 193, 8-chloro-6-(((S)-(1-isopropyl-1H-1,2,3-triazol-4-yl)(pyridin-3-yl)methyl)amino)-4-(((R)-1-phenylpropyl)amino)quinoline-3-carbonitrile] | 107 | 2 |  |
| CC(C)(C)N1CCC(n2cc([C@@H](Nc3cc(Cl)c4ncc(C#N)c(Nc5ccc(F)c(Cl)c5)c4c3)c3cncs3)nn2)CC1 [Example 370] |  |  | EC50 (TNFα; [5]): 232 nM; IC50 (Human Cot; [6]): 8 nM |
| CC(C)(C)CNc1c(C#N)cnc2c(C#N)cc(N[C@H](c3cn(C4(C(F)F)CC4)nn3)c3cccn4nccc34)cc12 [Example 444] |  |  | EC50 (TNFα; [5]): 33 nM; IC50 (Human Cot; [6]): 2 nM |
| CC(C)(C)CNc1c(C#N)cnc2c(Cl)cc(N[C@H](c3cn(C4CC4)nn3)c3ccc(F)nc3Cl)cc12 [Example 436, (S)-8-chloro-6-(((2-chloro-6-fluoro-pyridin-3-yl)(1-cyclopropyl-1H-1,2,3-triazol-4-yl)methyl)amino)-4-(neo-pentylamino)quinoline-3-carbonitrile] | 289 | 5 |  |
| Cc1ncccc1[C@H](Nc1cc(Cl)c2ncc(C#N)c(Nc3cccc(Cl)c3)c2c1)c1cn(C(C)C)nn1 [Example 225, (S)-8-chloro-4-((3-chlorophenyl)amino)-6-(((1-isopropyl-1H-1,2,3-triazol-4-yl)(2-methylpyridin-3-yl)methyl)amino)quinoline-3-carbonitrile] | 1490 | 10 |  |
| CC(C)n1cc([C@@H](Nc2cc(Cl)c3ncc(C#N)c(Nc4ccc(F)c(Cl)c4)c3c2)c2cccnc2Cl)nn1 [Example 297, (S)-8-chloro-4-((3-chloro-4-fluoro-phenyl)amino)-6-(((2-chloropyridin-3-yl)(1-isopropyl-1H-1,2,3-triazol-4-yl)methyl)amino)quinoline-3-carbonitrile] | 200 | 9 |  |
| Cn1ncc2c([C@H](Nc3cc(Cl)c4ncc(C#N)c(NCC(C)(C)C)c4c3)c3cn(C4(C)CC4)nn3)cccc21 [Example 525, (S)-8-chloro-6-(((1-methyl-1H-indazol-4-yl)(1-(1-methylcyclopropyl)-1H-1,2,3-triazol-4-yl)methyl)amino)-4-(neopentylamino)quinoline-3-carbonitrile] | 164 | 4 |  |
| COc1nccc2c([C@H](Nc3cc(Cl)c4ncc(C#N)c(NCC(C)(C)C)c4c3)c3cn(C4(C)CC4)nn3)cccc12 [Example 913, (S)-8-chloro-6-(((1-methoxylsoquinolin-5-yl)(1-(1-methylcyclopropyl)-1H-1,2,3-triazol-4-yl)methyl)amino)-4-(neopentylamino)quinoline-3-carbonitrile] |  |  | EC50 (TNFα; read-out: EC50 TNF, LPS-stimulated human monocytes, TNFα TR-FRET): 86 nM; IC50 (Human Cot; read-out: IC50 HTRF, Cot HTRF (TR-FRET KinEASE) biochemical assay, 400 μM ATP): 6 nM |
| Cc1nc(F)ccc1[C@H](Nc1cc(Cl)c2ncc(C#N)c(NCC(C)(C)C)c2c1)c1cn(C2(C(F)(F)F)COC2)nn1 [Example 548, (S)-8-chloro-6-(((6-fluoro-2-methylpyridin-3-yl)(1-(3-(trifluoromethyl)oxetan-3-yl)-1H-1,2,3-triazol-4-yl)methyl)amino)-4-(neopentylamino)quinoline-3-carbonitrile] | 124 | 8 |  |
| Cc1nc(F)ccc1[C@H](Nc1cc(Cl)c2ncc(C#N)c(NCC(C)(C)c3ccccc3)c2c1)c1cn(C2(C(F)(F)F)CC2)nn1 [Example 612, (S)-8-chloro-6-(((6-fluoro-2-methylpyridin-3-yl)(1-(1-(trifluoromethyl)cyclopropyl)-1H-1,2,3-triazol-4-yl)methyl)amino)-4-((2-methyl-2-phenylpropyl)amino)quinoline-3-carbonitrile] | 171 | 11 |  |
| [2H][C@](Nc1cc(Cl)c2ncc(C#N)c(NCC(C)(C)C)c2c1)(c1ccc(F)nc1)c1cn(C2CC2)nn1 [Example 142, (S)-8-chloro-6-(((1-cyclopropyl-1H-1,2,3-triazol-4-yl)(6-fluoropyridin-3-yl)methyl-d)amino)-4-(neopentylamino)quinoline-3-carbonitrile] | 66 | 2 |  |
| Cc1nc(F)ccc1[C@H](Nc1cc(Cl)c2ncc(C#N)c(NCC(C)(C)C(F)(F)F)c2c1)c1nnn([C@@H](C)CF)c1F [Example 955, 8-chloro-6-(((S)-(5-fluoro-1-((S)-1-fluoropropan-2-yl)-1H-1,2,3-triazol-4-yl)(6-fluoro-2-methylpyridin-3-yl)methyl)amino)-4-((3,3,3-trifluoro-2,2-dimethylpropyl)amino)quinoline-3-carbonitrile] |  |  | EC50 (TNFα; [3]): 50 nM; IC50 (Human Cot; [4]): 6 nM |
| N#Cc1cnc2c(Cl)cc(N[C@H](c3cn(C4CC4)nn3)c3ccc(F)nc3F)cc2c1Nc1cnc(F)c(F)c1 [Example 149, (S)-8-chloro-6-(((1-cyclopropyl-1H-1,2,3-triazol-4-yl)(2,6-difluoropyridin-3-yl)methyl)amino)-4-((5,6-difluoropyridin-3-yl)amino)quinoline-3-carbonitrile] | 381 | 8 |  |
| [2H]C(Nc1cc(Cl)c2ncc(C#N)c(N[C@H](CCO)c3ccccc3)c2c1)(c1ccc(F)nc1)c1cn(C2CC2)nn1 (stereo partly drawn) [Example 121, 8-chloro-6-(((1-cyclopropyl-1H-1,2,3-triazol-4-yl)(6-fluoropyridin-3-yl)methyl-d)amino)-4-(((R)-3-hydroxy-1-phenylpropyl)amino)quinoline-3-carbonitrile] | 171 | 7 |  |
| Cc1ncccc1[C@H](Nc1cc(Cl)c2ncc(C#N)c(Nc3cnc(F)c(F)c3)c2c1)c1cn(C2CC2)nn1 [Example 150, (S)-8-chloro-6-(((1-cyclopropyl-1H-1,2,3-triazol-4-yl)(2-methylpyridin-3-yl)methyl)amino)-4-((5,6-difluoropyridin-3-yl)amino)quinoline-3-carbonitrile] | 154 | 4 |  |
| Cc1nc(F)ccc1[C@H](Nc1cc(Cl)c2ncc(C#N)c(NCC(C)(C)C)c2c1)c1cn(C2(CF)CC2)nn1 [Example 495, (S)-8-chloro-6-(((6-fluoro-2-methylpyridin-3-yl)(1-(1-(fluoromethyl)cyclopropyl)-1H-1,2,3-triazol-4-yl)methyl)amino)-4-(neopentylamino)quinoline-3-carbonitrile] | 50 | 3 |  |

The next lines start with results.

| EC50 (TNFα; [1]) [nM] | IC50 (Human Cot; [2]) [nM] | SMILES | further results |
| --- | --- | --- | --- |
| 57 | 6 | Cn1ccc2c([C@H](Nc3cc(Cl)c4ncc(C#N)c(NCC(C)(C)C)c4c3)c3cn(C4CCN(C(C)(C)C)CC4)nn3)cccc2c1=O [Example 714, (S)-6-(((1-(1-(tert-butyl)piperidin-4-yl)-1H-1,2,3-triazol-4-yl)(2-methyl-1-oxo-1,2-dihydroisoquinolin-5-yl)methyl)amino)-8-chloro-4-(neopentylamino)quinoline-3-carbonitrile] |  |
| 26 | 3 | CCC1(n2cc([C@@H](Nc3cc(Cl)c4ncc(C#N)c(NCC(C)(C)C)c4c3)c3cccc4c(=O)n(C)ccc34)nn2)CC1 [Example 756, (S)-8-chloro-6-(((1-(1-ethylcyclopropyl)-1H-1,2,3-triazol-4-yl)(2-methyl-1-oxo-1,2-dihydroisoquinolin-5-yl)methyl)amino)-4-(neopentylamino)quinoline-3-carbonitrile] |  |
| 90 | 7 | CC(C)(CNc1c(C#N)cnc2c(Cl)cc(N[C@H](c3cn(C4(C5CC5)CC4)nn3)c3cccc4ncccc34)cc12)C(F)(F)F [Example 798, (S)-6-(((1-([1,1′-bi(cyclopropan)]-1-yl)-1H-1,2,3-triazol-4-yl)(quinolin-5-yl)methyl)amino)-8-chloro-4-((3,3,3-trifluoro-2,2-dimethylpropyl)amino)quinoline-3-carbonitrile] |  |
| 103 | 2 | Cc1nc(F)ccc1[C@H](Nc1cc(C#N)c2ncc(C#N)c(NCC(C)(C)C)c2c1)c1cn(C(F)(F)CO)nn1 [Example 661, (S)-6-(((1-(1,1-difluoro-2-hydroxyethyl)-1 H-1,2,3-triazol-4-yl)(6-fluoro-2-methylpyridin-3-yl)methyl)amino)-4-(neopentylamino)quinoline-3,8-dicarbonitrile] |  |
| 32 | 2 | Cn1ccc2c([C@H](Nc3cc(C#N)c4ncc(C#N)c(NCC(C)(C)C)c4c3)c3cn(C4(C(F)(F)F)CC4)nn3)cccc2c1=O [Example 631, (S)-6-(((2-methyl-1-oxo-1,2-dihydroisoquinolin-5-yl)(1-(1-(trifluoromethyl)-cyclopropyl)-1H-1,2,3-triazol-4-yl)methyl)amino)-4-(neopentylamino)quinoline-3,8-dicarbonitrile] |  |
